Assay in all cases: NCI tumour cell line growth inhibition, 48 h
For assay [1], the system named is HOP-62 NSCLC.
Assay [2] has as its system EKVX NSCLC.
Assay [3] concerns SK-MEL-2 melanoma.
For assay [4], the system named is SN12C renal.
In assay [5] the test system is TK-10 renal.
Assay [6] relates to SK-MEL-5 melanoma.
In assay [7] the test system is SK-OV-3 ovarian.
Assay [8] deals with NCI-H226 lung.
The subject of assay [9] is DMS 114 small cell lung.
The subject of assay [10] is KM20L2 colon.

Values joined by “and” are separate entries in the source; they are usually repeats but may differ in a detail not shown here. Identical values can stand only once.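 48-hour exposure; five concentrations; linearly interpolated endpoints. GI50 marks 50% less growth. At the TGI there is no net growth.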

For `CNc1ccc2c(c1)[C@@]1(C)c3ccccc3[C@@H](C2)N1C`, the TGI in [1] is > 100 µM; in assay [2], 97.3 µM; in assay [3] it was 51.7 µM; in [4], 33 µM; in assay [5] it was 86.2 µM; in assay [6] it was 32 µM. Also, the TGI in [7] is > 100 µM.
Regarding `Nc1cccc(/C=C/C(=O)N2CCN(CCOC(c3ccccc3)c3ccccc3)CC2)c1`, the TGI in assay [1] was determined as 32.4 µM; in assay [2], 36.2 µM; in assay [3] it was 29.7 µM; in assay [8], 39.8 µM; in assay [4], 33.9 µM; in assay [5], 28.3 µM. Further, the figures for the TGI in [6] and in [7] were 29.4 µM and 32.7 µM, respectively.
For the compound `CC1=CC(=O)c2ccccc2C1=O`, the TGI in assay [1] was 29.8 µM; in assay [2], 31.8 µM; in [3] it was 22.7 µM; in assay [8] it was 31 µM; in assay [4], 25 µM; in assay [5], 34.1 µM. The TGI in [6] came to 5.92 µM; in assay [7] it was 25.7 µM.
`CCCCCCCCC/C=C/C=C/C(=O)NCC(=O)NC1C(O)C(O)C(Nc2ncnc3nc[nH]c23)OC1C(O)CO` (stereo not given): the TGI was > 100 µM in assay [9]; 0.0186 µM and 0.126 µM in [10]; 0.057 µM and 0.136 µM in assay [3]; 0.1 µM and 0.373 µM in assay [8]; 0.913 µM in assay [4]; 1.71 µM in assay [5]. The values for the TGI in assay [6] and in assay [7] were 0.12 µM and 0.00892 µM, respectively. Further, the GI50 was 0.0011 µM in assay [1] and 0.00179 µM in assay [8].
On to `C[C@H](CCC(=O)O)[C@H]1CC[C@@]2(C)[C@@H]3C(=O)C[C@H]4C(C)(C)[C@@H](O)CC[C@]4(C)[C@H]3C(=O)C[C@]12C`, for which the TGI in assay [1], in [2], in assay [3], in assay [8], in assay [4] and in assay [5] was > 100 µM each time. The TGI in assay [6] and in assay [7] was > 100 µM each time.
For the compound `Cc1c(N2C(=O)CS(=O)(=O)C2c2cccc(Oc3ccccc3)c2)c(=O)n(-c2ccccc2)n1C` (stereo not given), the TGI was > 100 µM in assay [1]; > 100 µM in assay [2]; > 100 µM in [3]; > 100 µM in assay [8]; > 100 µM in assay [4]; 47.7 µM in [5]. Besides, the TGI in assay [6] and in [7] was > 100 µM throughout.
Turning to `CC1=NN(c2cccc(Cl)c2)C2(SCC(=O)N2c2nc3ccccc3s2)/C1=C\c1cccs1` (stereo not given), the TGI in assay [1] is > 100 µM; in assay [2], 38.4 µM; in assay [3] it was 41.8 µM; in assay [8] it was 50.7 µM; in assay [5], 80.6 µM; in [6] it was 36.7 µM.
For the compound `COc1nc(C#CC2(O)CCCCC2)nc(OC)n1`, the TGI was 91 µM in assay [1]; 35.6 µM in assay [2]; 27 µM in assay [3]; 26.6 µM in assay [4]; 20.2 µM in assay [6]; > 100 µM in assay [7].
On to `C(=N\NC1=NCCN1)/c1ccc(-c2cn3cc(/C=N/NC4=NCCN4)ccc3n2)cc1`, for which the TGI is > 92.4 µM in [2]; > 100 µM in assay [3]; > 100 µM in assay [8]; > 63.1 µM in [4]; 56.1 µM in assay [5]; > 100 µM in [6]. In [7], the TGI was > 100 µM.
Regarding `Nc1nc(SCCc2ccccc2)nc2nc3c(c(-c4ccccc4)c12)CCCC3`, the TGI in assay [1], in [2], in assay [4], in [5] and in assay [7] was > 100 µM throughout.
As to `COc1cc2c(ccc3c4cc(OC)c(OC)cc4c[n+](C)c23)cc1O`, the TGI in [9] is 74.7 µM; in assay [1] it was 21 µM; in assay [2], > 71.5 µM; in assay [10] it was > 75 µM; in assay [3], > 71.5 µM; in assay [8], 9.14 µM. For the same compound, the TGI is 22.1 µM in [4], 52.7 µM in [6] and > 72.2 µM in [7].
Consider `CCCNC(=O)CCC(C)C1CCC2C3C(C[C@H](OC(C)=O)[C@]12C)[C@@]1(C)CCC2(C[C@H]1C[C@H]3OC(C)=O)OOC1(CC[C@]3(C)C4C[C@H](OC(C)=O)[C@]5(C)C(C(C)CCC(=O)NCCC)CCC5C4[C@H](OC(C)=O)C[C@@H]3C1)OO2` (stereo not given in full), for which the TGI in assay [1] was > 100 µM; in [2], > 100 µM; in [3] it was > 100 µM; in assay [8] it was > 84.7 µM; in assay [4], > 100 µM; in assay [5], > 100 µM. The TGI in assay [6] and in assay [7] was > 100 µM in each case.
For `Cc1ccccc1C(=O)N/N=C/c1ccc(Sc2nccn2C)c([N+](=O)[O-])c1`, the TGI in [1], in assay [2], in [3], in assay [8], in assay [4] and in [5] was > 100 µM each time. Moreover, the TGI in [6] and in assay [7] was > 100 µM in each case.
As to `O=C(O)C1C2CCC(O2)C1C(=O)Nc1cccc2cccnc12` (stereo not given), the TGI in assay [1], in [2], in assay [3], in [4], in assay [5] and in assay [7] was > 100 µM in each case.
Regarding `O=c1[nH]nc(NNc2ccccc2)c2nnn(C3CCCCC3)c12`, the TGI in assay [1], in assay [2], in [3], in assay [4], in [5] and in assay [6] was > 100 µM each time.
For the compound `CC(C)(C)c1cc(C2=NNC(c3ccccc3)C2)cc(C(C)(C)C)c1O` (stereo not given), the TGI was found to be 33.3 µM in assay [1]; 36.6 µM in [2]; 29.3 µM in [3]; 32.8 µM in [8]; 32.7 µM in assay [4]; 29.4 µM in assay [5]. The TGI came out at 23 µM in assay [6] and 38.2 µM in [7].
On to `Cc1nn(-c2ccccc2)c(C)c1/C=N/N=C1\SCC(=O)N1c1ccccc1`, for which the TGI is 86.8 µM in assay [1]; 47.1 µM in [2]; 58.4 µM in assay [3]; 66.5 µM in assay [8]; > 100 µM in [4]; 93.4 µM in assay [5]. The TGI in [6] stood at 30.3 µM; in [7] it was 83 µM.
For the compound `CCOC(=O)C1=NN(c2ccc(C)cc2)C2=CC(C)=NN(C)C(=S)N21`, the TGI in assay [2], in assay [3], in assay [4], in [5], in [6] and in assay [7] was > 100 µM in each case.
With `Fc1ccc(C(OCCN2CCC3CCC(C2)N3C/C=C/c2ccco2)c2ccc(F)cc2)cc1` (stereo not given), the TGI in [1] stood at 36.5 µM; in [3], 26.2 µM; in assay [8], 28.8 µM; in [4] it was 24.8 µM; in assay [5] it was 21.5 µM; in assay [6], 14.4 µM. In assay [7], the TGI stood at 30.3 µM.
As for `O=c1cccccc1[O-].O=c1cccccc1[O-].[O]=[U+2]=[O]`, the TGI in [2] was > 100 µM; in assay [10] it was > 100 µM; in assay [4], 63.2 µM; in assay [5], 57.3 µM; in [6], > 100 µM; in assay [7] it was 74.5 µM. In addition, the GI50 in assay [10] is 32 µM; in assay [4] it was 27.2 µM.
Turning to `O=C(C[n+]1ccc2ccccc2c1)c1ccc2ccc3ccccc3c2c1`, the TGI was found to be 21.1 µM in [1]; 19.3 µM in assay [2]; 15.9 µM in [3]; 25.3 µM in assay [8]; 14.7 µM in [4]; 8.74 µM in assay [5]. Also, the TGI in assay [6] is 14.4 µM; in [7], 21 µM.
As to `CCOC(=O)C(NC(=O)c1ccco1)(Nc1nc2ccc(OCC)cc2s1)C(F)(F)F` (stereo not given), the TGI in assay [2] is > 100 µM; in [3] it was > 100 µM; in assay [8] it was > 100 µM; in [4], > 100 µM; in assay [5] it was > 100 µM; in assay [6] it was 47.8 µM. Further, in assay [7], the TGI is > 100 µM.
`CCn1c(-c2ccc(N=NNc3ccc(-c4n[nH]c(=S)n4CC)cc3)cc2)n[nH]c1=S`: the TGI in assay [1] is 8.03 µM; in assay [2] it was 75.4 µM; in assay [3] it was 4.45 µM; in assay [8], 5.86 µM; in assay [4], > 100 µM; in [5] it was > 100 µM. Further, the figures for the TGI in assay [6] and in [7] were 3.48 µM and 19.5 µM, respectively.
`COc1ccc(C(=O)/C=C/c2cccc([N+](=O)[O-])c2)c(OC)c1`: the GI50 in assay [1] is 1.8 µM; in assay [2] it was > 50 µM; in assay [3], 12.4 µM; in assay [8] it was 1.65 µM; in assay [4], 1.18 µM; in assay [5] it was 1.59 µM. Moreover, the GI50 in assay [6] was 2.37 µM; in [7] it was 18.9 µM. Besides, the TGI in assay [1] is > 50 µM; in assay [2], > 50 µM; in assay [3], > 50 µM; in assay [8], 7.77 µM; in assay [4], 2.99 µM; in assay [5] it was > 50 µM. The TGI in assay [6] and in assay [7] was > 50 µM each time.
For `NCCCCc1cc(O)c2c(c1O)C(=O)c1ccccc1C2=O`, the TGI in [1] is 21.3 µM; in assay [2], 33.5 µM; in [3] it was 32.4 µM; in assay [8] it was 19.2 µM; in [4], 23 µM; in assay [5] it was 34 µM. The values for the TGI in assay [6] and in [7] were 28.3 µM and 29.1 µM, respectively.
On to `CCC(C)C1=C(OC(C)=O)[N+]2([O-])Oc3ccc(-c4c(OC(C)=O)c(OC(C)=O)c(-c5ccc(OC(C)=O)cc5)c(OC(C)=O)c4OC(C)=O)cc3OC2(C(C)CC)C(=O)N1OC(C)=O` (stereo not given), for which the TGI in [2] was 32.7 µM; in assay [3], 43.2 µM; in assay [8], > 50 µM; in assay [4], > 50 µM; in assay [5], > 50 µM; in assay [6], 23 µM. The TGI in assay [7] was > 50 µM.
As to `O=C(c1cccs1)N(C(=S)OC12CC3CC(CC(C3)C1)C2)c1ccccc1`, the TGI was > 100 µM in assay [1]; 55.6 µM in assay [2]; 39.3 µM in [3]; > 100 µM in [8]; 89.8 µM in assay [4]; > 100 µM in assay [5]. Also, the TGI in assay [6] was 55.8 µM; in [7] it was > 100 µM.
As to `COc1cc2c(cc1O)CC[C@@H]1[C@@H]2CC[C@]2(C)[C@@H](OCCN(C)C)CC[C@@H]12`, the GI50 in [1] was 0.389 µM; in assay [2], 0.527 µM; in assay [3] it was 0.23 µM; in assay [8] it was 1.17 µM; in assay [4] it was 0.803 µM; in assay [5] it was 0.932 µM. Moreover, the figures for the GI50 in assay [6] and in [7] were 0.0828 µM and 0.356 µM, respectively. Further, the TGI in assay [1] stood at 1.66 µM; in assay [2], 28.5 µM; in assay [3], 1.04 µM; in [8] it was 6.04 µM; in assay [4], 4.05 µM; in assay [5], 2.81 µM. Further, the results for the TGI in [6] and in assay [7] were 0.164 µM and 2.11 µM, respectively.
On to `CC12CC3OC(=O)C1COC14OC5(C2C1=O)C(O)(CCC1C4CC(O)C2(O)CC=CC(=O)C12C)C(=O)OC35C` (stereo not given), for which the TGI in assay [2], in assay [3], in assay [8], in assay [4], in [5] and in assay [6] was > 100 µM each time. Also, in assay [7], the TGI was > 100 µM.
`COc1cccc2c1Cc1cc(-c3ccccc3)[n+](C)n1-2`: the TGI in [1] is > 100 µM; in assay [2] it was 8.22 µM; in assay [3], 50 µM; in assay [8], 47.7 µM; in assay [4] it was 61.7 µM; in [5], > 100 µM. Further, the values for the TGI in assay [6] and in assay [7] were 21.7 µM and > 100 µM, respectively.

For the origin of these results see PubChem BioAssay (NCI).
